According to patent US20250223559A1, “AXIOLOID: A STEM CELL-BASED MODEL OF HUMAN AXIAL DEVELOPMENT” (KYOTO UNIVERSITY, priority 2022, published 2025):

Columns and labels:
[1] = test system: segmentation clock gene HES7; assay: HES7:Luciferase reporter oscillation of the segmentation clock in Axioloids; assay type: cell-based, human; conditions: RA, RAL or ROL, with or without MG
Protocol: Bioluminescence live-cell imaging of HES7-reporter (201B7Luc) iPSC-derived human Axioloids (201B7Luc) was performed and signal was quantified as previously described^55,56 Briefly, one day before imaging glass-bottom 96-well plates (Iwaki) were coated with 50 μl of 1.5% PVA (Nacalai), the PVA solution was hereby aspirated and the plates dried on top of a clean bench overnight at room temperature. Prior to imaging, Axioloids were set onto coated glass-bottom 96-well plates with 80 μl of AK02N-C medium containing […] D-Luciferin and 10% Matrigel. Small molecule agonists and antagonists of signaling pathways were added according to the experimental setup. Bioluminescence signals of Axioloids induced from the HES7-reporter cell line were recorded on IX83 (Olympus) equipped with iXon EMCCD camera (Andor) cultured in a stage top incubator (Tokai Hit). Signal was acquired with 2×2 binning and 1 min exposure. Cosmic rays were removed from the raw images by applying spike noise filter, then smoothed by median filter. Temporal fluctuation of signal baseline was corrected by background subtraction. Kymograph was generated by averaging luminescence intensity values along the lateral axis of Axioloids and resulted values were aligned in temporal order.
Periodicity of HES7 oscillation was quantified from time-series luminescence intensity data obtained from either live imaging or Kronos HT (Atto) measurements using HES7 reporter-derived Axioloids. For Kronos HT based oscillation measurements, Axioloids were transferred at 72 h (48 h after aggregation) into 24-well film-bottom plates (Eppendorf) covered in 400 μl of embedding medium (+/−MG) supplemented with D-Luciferin (100 μM) (bioWORLD). Axioloid containing culture plates were cultured at 37° C. and 5% CO2. Oscillations were measured for 48 hours and each well was measured for 10 seconds with 8 min intervals. Intensity values were processed using Matlab. Temporal trend was obtained by subtracting moving average (window size of 10 h), and the detrended signal was smoothed by Savitzky-Golay filter (window size of 3 h). Instantaneous oscillation phase was calculated by applying Hilbert transform, then peak detection was performed on cosine values of instantaneous oscillation phase. Peak-to-peak period was then quantified on each n-th oscillation.

human Axioloids = assay: scRNA-seq analysis of Axioloids (clusters, marker genes, differentially expressed genes); assay type: cell-based
Protocol: Axioloids were collected into wells of a 96-well plate and washed three times by transferring to another well filled with 0.1% BSA (SIGMA) in HBSS(-). Axioloids of the desired stage and number were then transferred to another well filled with 100 μl of enzyme P solution of the Neural Tissue Dissociation Kit (P) (Miltenyi Biotec) and incubated at 37° C. for 10 minutes. After adding 100 μl of 0.1% BSA in HBSS(-) Axioloids were dissociated by pipetting with an uncut P200 tip 20 times. The dissociated cells were filtered through Flowmi Cell Strainers with […] porosity (Merck) into a BSA-coated 2 ml tube (Eppendorf). Cells were washed twice in 1% BSA in HBSS(-) with centrifugation steps at 400×g for 6 minutes at room temperature. Cells were then resuspended in 1% BSA in HBSS(-) using a BSA-coated uncut-P200 tip and the concentration of the cell suspension was determined with hemocytometer. The cell suspension was subjected to library preparation using Chromium Next GEM Single Cell 3' Kit v3.1 (10× Genomics), aiming for a target cell recovery of 5000-10000. Library preparation was preformed following the instructions provided by the manufacturer 10X Genomics (CG000315 Rev B). The libraries were sequenced with NovaSeq 6000 Sequencing System (Illumina) using NovaSeq 6000 SP Reagent Kit v1.5 (100 Cycles) (Illumina, #20028401) and NovaSeq 6000 S1 Reagent Kit v1.5 (100 Cycles) (Illumina, #20028319) with the paired-end mode as described in the instructions by 10X Genomics (CG000315 Rev B). scRNA-seq data were first mapped to the human reference genome (hg38) to make matrices of UMI count for each gene and each cell using Cell Ranger (10X Genomics, version 6.0.1). Putative doublet clusters were removed using Scrublet (version 0.2.3) with the expected_doublet_rate set as 0.06^64. Then, the count data were imported into the Suerat package (version 4.0.3)^65 for the downstream analysis. […] The cell cycle scores and cell cycle phases were then determined as described before^66. […]

**Q.** With `CC1=C(/C=C/C(C)=C/C=C/C(C)=C/C=O)C(C)(C)CCC1` [RAL, all trans-Retinal] as the compound, how does the “oscillatory activity including periodicity of HES7” value [1] read?
**A.** The value was “largely no effect”.

**Q.** What about the “segregation of SM and TB clusters” value (human Axioloids; MG with vs without RA or RAL, 96 h and 120 h) of the same compound?
**A.** The value was “clear segregation of the SM and TB clusters”.

**Q.** What about the “expression of TCF15, MEOX1, PAX3, PBX1, ZIC3, NR2F1, MEIS2” value (human Axioloids; MG-embedded, exposed to RAL/RA) of the same compound?
**A.** The value was “up-regulated”.

**Q.** And the “MG-associated DEGs in SM (EMT genes, SFRP1, DKK1, FST, ID2, TFC15, PAX3)” value (human Axioloids; addition of RA or RAL to MG)?
**A.** The value was “attenuated”.
